The results in this text go back to patent US10538521B2, “Pyrimidine derivative having antimalarial activity” (CARNA BIOSCIENCES, INC., priority 2016, dated 2020).

For experiment [1], the system named is K1 strain, a drug resistant strain of Plasmodium falciparum. The experiment is described as follows: In vitro antimalarial assay (p-LDH, Malstat), K1 strain. Conditions: read-out: Antimalarial activity (IC50 value), Strain K1. It counts as cell-based. An outline of the steps:
(§1)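 IC50 derived from concentration-response of parasite lactate dehydrogenase signal (Malstat reagent, NBT/PES formazan at 655 nm) after freeze-thaw lysis. Infected erythrocytes (hematocrit 2%, parasitaemia 0.5 or 1%) exposed 72 h to 12.5–0.0001 μM final compound under 3% O2-4% CO2-93% N2, FCR3 and K1 alike.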

Experiment [2] deals with FCR3 strain, a drug sensitive strain of Plasmodium falciparum. Briefly: In vitro antimalarial assay (p-LDH, Malstat), FCR3 strain. It counts as cell-based. Conditions: read-out: Antimalarial activity (IC50 value), Strain FCR3. An outline of the steps:
as §1

Setting [3] is: P. falciparum K1 (drug resistant), 72 h culture, p-LDH readout.
Setting [4] is: P. falciparum FCR3 (drug sensitive), 72 h culture, p-LDH readout.

Where two headings read alike, the source gives them in different places.

Broadly, the IC50 is the concentration at which inhibition is half-maximal. In the case of `CCCOc1cccc(Nc2nc(Nc3ccn4ccnc4c3)cc(N3CCCC3)n2)n1` [Example 151, N4-(imidazo[1,2-a]pyridin-7-yl)-N2-(6-propoxypyridin-2-yl)-6-(pyrrolidin-1-yl)pyrimidine-2,4-diamine], the IC50 in experiment [1] (setting [3]) and in experiment [2] (setting [4]) was 100 to 1000 nM each time.
`COCCOc1cccc(Nc2nc(Nc3ccn4ccnc4c3)cc(N3CCCC3)n2)n1` [Example 152, N4-(imidazo[1,2-a]pyridin-7-yl)-N2-[6-(2-methoxyethoxy)pyridin-2-yl]-6-(pyrrolidin-1-yl)pyrimidine-2,4-diamine]: the IC50 in experiment [1] (setting [3]) and in experiment [2] (setting [4]) was less than 100 nM each time.
Turning to `CC(C)Oc1cccc(Nc2nc(Nc3ccn4ccnc4c3)cc(N3CCCC3)n2)n1` [Example 153, N4-(imidazo[1,2-a]pyridin-7-yl)-N2-(6-isopropoxypyridin-2-yl)-6-(pyrrolidin-1-yl)pyrimidine-2,4-diamine], the half-maximal inhibitory concentration (IC50) in experiment [1] (setting [3]) and in experiment [2] (setting [4]) was less than 100 nM each time.
For `c1cc(Nc2nc(Nc3ccn4ccnc4c3)cc(N3CCCC3)n2)nc(OCCN2CCOCC2)c1` [Example 154, N4-(imidazo[1,2-a]pyridin-7-yl)-N2-[6-(2-morpholinoethoxy)pyridin-2-yl]-6-(pyrrolidin-1-yl)pyrimidine-2,4-diamine], the IC50 in experiment [1] (setting [3]) and in experiment [2] (setting [4]) was less than 100 nM each time.
For the compound `CN(C)CCOc1cccc(Nc2nc(Nc3ccn4ccnc4c3)cc(N3CCCC3)n2)n1` [Example 155, N2-{6-[2-(dimethylamino)ethoxy]pyridin-2-yl}-N4-(imidazo[1,2-a]pyridin-7-yl)-6-(pyrrolidin-1-yl)pyrimidine-2,4-diamine], the 50% inhibitory concentration (IC50) in experiment [1] (setting [3]) and in experiment [2] (setting [4]) was less than 100 nM throughout.
As for `CC(C)(C)OCCOc1cccc(Nc2nc(Nc3ccn4ccnc4c3)cc(N3CCCC3)n2)n1` [Example 156, N2-{6-[2-(tert-butoxy)ethoxy]pyridin-2-yl}-N4-(imidazo[1,2-a]pyridin-7-yl)-6-(pyrrolidin-1-yl)pyrimidine-2,4-diamine], the figures for the 50% inhibitory concentration (IC50) in experiment [1] (setting [3]) and in experiment [2] (setting [4]) were 100 to 1000 nM and less than 100 nM, respectively.
For `OCCOc1cccc(Nc2nc(Nc3ccn4ccnc4c3)cc(N3CCCC3)n2)n1` [Example 157, 2-[(6-{[4-(imidazo[1,2-a]pyridin-7-ylamino)-6-(pyrrolidin-1-yl)pyrimidin-2-yl]amino}pyridin-2-yl)oxy]ethanol], the IC50 in experiment [1] (setting [3]) and in experiment [2] (setting [4]) was less than 100 nM each time.
Take `CC(C)COc1cccc(Nc2nc(Nc3ccn4ccnc4c3)cc(N3CCCC3)n2)n1` [Example 158, N4-(imidazo[1,2-a]pyridin-7-yl)-N2-(6-isobutoxypyridin-2-yl)-6-(pyrrolidin-1-yl)pyrimidine-2,4-diamine]: the IC50 is 100 to 1000 nM in experiment [1] (setting [3]) and less than 100 nM in experiment [2] (setting [4]).
In the same order, the values of `COCCc1cccc(Nc2nc(Nc3ccn4ccnc4c3)cc(N3CCCC3)n2)n1` [Example 159, N4-(imidazo[1,2-a]pyridin-7-yl)-N2-[6-(2-methoxyethyl)pyridin-2-yl]-6-(pyrrolidin-1-yl)pyrimidine-2,4-diamine] are less than 100 nM and less than 100 nM.
As to `CCOCCc1cccc(Nc2nc(Nc3ccn4ccnc4c3)cc(N3CCCC3)n2)n1` [Example 160, N2-[6-(2-ethoxyethyl)pyridin-2-yl]-N4-(imidazo[1,2-a]pyridin-7-yl)-6-(pyrrolidin-1-yl) pyrimidine-2,4-diamine], the IC50 in experiment [1] (setting [3]) and in experiment [2] (setting [4]) was less than 100 nM throughout.
As for `CC(C)(C)Cc1cccc(Nc2nc(Nc3ccn4ccnc4c3)cc(N3CCCC3)n2)n1` [Example 162, N4-(imidazo[1,2-a]pyridin-7-yl)-N2-(6-neopentylpyridin-2-yl)-6-(pyrrolidin-1-yl)pyrimidine-2,4-diamine], the results for the IC50 in experiment [1] (setting [3]) and in experiment [2] (setting [4]) were 100 to 1000 nM and less than 100 nM, respectively.
Consider `c1cc(CCN2CCCC2)nc(Nc2nc(Nc3ccn4ccnc4c3)cc(N3CCCC3)n2)c1` [Example 163, N4-(imidazo[1,2-a]pyridin-7-yl)-6-(pyrrolidin-1-yl)-N2-{6-[2-(pyrrolidin-1-yl)ethyl]pyridin-2-yl}pyrimidine-2,4-diamine triformate], for which the IC50 in experiment [1] (K1, 72 h) was 100 to 1000 nM; in experiment [2] (FCR3, 72 h), less than 100 nM.
For the compound `CCCOCc1cccc(Nc2nc(Nc3ccn4ccnc4c3)cc(N3CCCC3)n2)n1` [Example 164, N4-(imidazo[1,2-a]pyridin-7-yl)-N2-[6-(propoxymethyl)pyridin-2-yl]-6-(pyrrolidin-1-yl) pyrimidine-2,4-diamine], the IC50 in experiment [1] (setting [3]) was in the range of 1000 to 10000 nM; in experiment [2] (setting [4]), 100 to 1000 nM.
In the same order, the values of `Cc1cc(C)nc(Nc2nc(Nc3ccn4ccnc4c3)cc(N3CCC3)n2)c1` [Example 166, 6-(azetidin-1-yl)-N2-(4,6-dimethylpyridin-2-yl)-N4-(imidazo [1,2-a]pyridin-7-yl)pyrimidine-2,4-diamine] are less than 100 nM and less than 100 nM.
In the same order, the values of `CCCCc1cccc(Nc2nc(Nc3ccn4ccnc4c3)cc(N3CCC3)n2)n1` [Example 167, 6-(azetidin-1-yl)-N2-(6-butylpyridin-2-yl)-N4-(imidazo[1,2-a]pyridin-7-yl)pyrimidine-2,4-diamine] are 100 to 1000 nM and less than 100 nM.
For `CCCCc1cccc(Nc2nc(Nc3ccn4ccnc4c3)cc(N3CCC(C)(C)C3)n2)n1` [Example 168, N2-(6-butylpyridin-2-yl)-6-(3,3-dimethylpyrrolidin-1-yl)-N4-(imidazo[l,2-a]pyridin-7-yl) pyrimidine-2,4-diamine] the same measures were 100 to 1000 nM and less than 100 nM.
As to `CCCCc1cccc(Nc2nc(Nc3ccn4ccnc4c3)cc(N3CCC4(CCOCC4)C3)n2)n1` [Example 169, N2-(6-butylpyridin-2-yl)-N4-(imidazo[1,2-a]pyridin-7-yl)-6-(8-oxa-2-azaspiro[4.5]decan-2-yl) pyrimidine-2,4-diamine], the IC50 in experiment [1] (setting [3]) and in experiment [2] (setting [4]) was less than 100 nM in each case.
For the compound `CCOCc1cccc(Nc2nc(Nc3ccn4ccnc4c3)cc(N3CCCC3)n2)n1` [Example 171, N2-[6-(ethoxymethyl)pyridin-2-yl]-N4-(imidazo[1,2-a]pyridin-7-yl)-6-(pyrrolidin-1-yl) pyrimidine-2,4-diamine], the IC50 in experiment [1] (setting [3]) and in experiment [2] (setting [4]) was 100 to 1000 nM throughout.
As to `CN(C)CCc1cccc(Nc2nc(Nc3ccn4ccnc4c3)cc(N3CCCC3)n2)n1` [Example 172, N2-{6-[2-(dimethylamino)ethyl]pyridin-2-yl}-N4-(imidazo[1,2-a]pyridin-7-yl)-6-(pyrrolidin-1-yl)pyrimidine-2,4-diamine], the values for the IC50 in experiment [1] (setting [3]) and in experiment [2] (setting [4]) were 100 to 1000 nM and less than 100 nM, respectively.
On to `CCCCc1cccc(Nc2nc(Nc3ccn4ccnc4c3)cc(N3CCC4(CCCC4)C3)n2)n1` [Example 173, N2-(6-butylpyridin-2-yl)-N4-(imidazo[1,2-a]pyridin-7-yl)-6-(2-azaspiro[4.4]nonan-2-yl) pyrimidine-2,4-diamine], for which the half-inhibitory concentration (IC50) in experiment [1] (setting [3]) and in experiment [2] (setting [4]) was 100 to 1000 nM throughout.
For the compound `Cc1cc(C)nc(Nc2nc(Nc3ccn4ccnc4c3)cc(N3CCC4(CCOCC4)C3)n2)c1` [Example 175, N2-(4,6-dimethylpyridin-2-yl)-N4-(imidazo[1,2-a]pyridin-7-yl)-6-(8-oxa-2-azaspiro[4.5]decan-2-yl)pyrimidine-2,4-diamine], the IC50 in experiment [1] (setting [3]) and in experiment [2] (setting [4]) was less than 100 nM in each case.
In the case of `Cc1cc(C)nc(Nc2nc(Nc3ccn4ccnc4c3)cc(N3C[C@H]4CCC[C@H]4C3)n2)c1` [Example 176, N2-(4,6-dimethylpyridin-2-yl)-6-[(3aR,6aS)-hexahydrocyclopenta [c]pyrrol-2(1H)-yl]-N4-(imidazo[1,2-a]pyridin-7-yl) pyrimidine-2,4-diamine], the half-maximal inhibitory concentration (IC50) in experiment [1] (setting [3]) and in experiment [2] (setting [4]) was less than 100 nM throughout.
For `Cc1cc(C)nc(Nc2nc(Nc3ccn4ccnc4c3)cc(N3CC(C)(C)C3)n2)c1` [Example 177, 6-(3,3-dimethylazetidin-1-yl)-N2-(4,6-dimethylpyridin-2-yl)-N4-(imidazo[1,2-a]pyridin-7-yl)pyrimidine-2,4-diamine], the IC50 in experiment [1] (setting [3]) and in experiment [2] (setting [4]) was less than 100 nM throughout.
As for `Cc1cc(C)nc(Nc2nc(Nc3ccn4ccnc4c3)cc(N3CC4(COC4)C3)n2)c1` [Example 178, N2-(4,6-dimethylpyridin-2-yl)-N4-(imidazo[1,2-a]pyridin-7-yl)-6-(2-oxa-6-azaspiro[3.3]heptan-6-yl)pyrimidine-2,4-diamine], the half-inhibitory concentration (IC50) in experiment [1] (setting [3]) and in experiment [2] (setting [4]) was less than 100 nM each time.
`CCCCc1cccc(Nc2nc(Nc3ccn4ccnc4c3)cc(N3C[C@H]4CCC[C@H]4C3)n2)n1` [Example 179, N2-(6-butylpyridin-2-yl)-6-((3aR,6aS)-hexahydrocyclopenta[c]pyrrol-2(1H)-yl)-N4-(imidazo [1,2-a]pyridin-7-yl)pyrimidine-2,4-diamine]: the IC50 in experiment [1] (setting [3]) and in experiment [2] (setting [4]) was 100 to 1000 nM throughout.
As to `CCCCc1cccc(Nc2nc(Nc3ccn4ccnc4c3)cc(N3CC(C)(C)C3)n2)n1` [Example 180, N2-(6-butylpyridin-2-yl)-6-(3,3-dimethylazetidin-1-yl)-N4-(imidazo[1,2-a]pyridin-7-yl) pyrimidine-2,4-diamine], the IC50 in experiment [1] (setting [3]) and in experiment [2] (setting [4]) was less than 100 nM each time.
Regarding `CCCCc1cccc(Nc2nc(Nc3ccn4ccnc4c3)cc(N3CC4(COC4)C3)n2)n1` [Example 181, N2-(6-butylpyridin-2-yl)-N4-(imidazo[1,2-a]pyridin-7-yl)-6-(2-oxa-6-azaspiro[3.3]heptan-6-yl)pyrimidine-2,4-diamine], the results for the half-inhibitory concentration (IC50) in experiment [1] (setting [3]) and in experiment [2] (setting [4]) were less than 100 nM and 100 to 1000 nM, respectively.
